Test results as given in US9469615B2, “Quinoxalines and AZA-quinoxalines as CRTH2 receptor modulators” (Merck Sharp & Dohme Corp., priority 2010, dated 2016).

The compounds below were run against T1, hCRTH2 (Homo sapiens, UniProt Q9Y5Y4) (assay: Radioligand binding assay ([3H]PGD2 competition, HEK-hCRTH2 membranes)). Conditions: [3H]PGD2 binding, rated A-E (Table A).
T1 construct: expressed in transfected cells; host or cells: HEK (human embryonic kidney) cells expressing hCRTH2; membrane preparation
T1 sequence (Q9Y5Y4 1-395): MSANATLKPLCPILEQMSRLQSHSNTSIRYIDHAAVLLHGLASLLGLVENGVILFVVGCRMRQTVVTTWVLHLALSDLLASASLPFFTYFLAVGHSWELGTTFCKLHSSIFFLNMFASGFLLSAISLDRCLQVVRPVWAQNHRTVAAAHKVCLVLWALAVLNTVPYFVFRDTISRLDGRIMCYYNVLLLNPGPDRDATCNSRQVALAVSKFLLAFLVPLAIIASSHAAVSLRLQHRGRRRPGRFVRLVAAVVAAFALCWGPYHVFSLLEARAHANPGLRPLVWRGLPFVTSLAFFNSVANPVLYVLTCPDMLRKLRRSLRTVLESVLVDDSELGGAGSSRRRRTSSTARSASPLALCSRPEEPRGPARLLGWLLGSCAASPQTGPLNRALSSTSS
Protocol: Biological Assays Radioligand Binding Assay.
Radioligand binding assays were performed at room temperature in 50 mM Tris-HCl pH 7.4, 1 mM EDTA containing 2 mM MnCl2 and 3.0 nM [^3H]PGD2 (New England Nuclear, Boston, Mass.) (171 Ci mmol^−1), in a final volume of 0.2 mL. Competing ligands were diluted in dimethylsulfoxide (Me2SO) that was kept constant at 1% (v/v) of the final incubation volume. The reaction was initiated by the addition of 8-20 μg of membrane protein prepared from a human embryonic kidney (HEK)-hCRTH2 cell line. Total and non-specific binding were determined in the absence and the presence of 10 μM PGD2, respectively. […] The reaction was routinely conducted for 60 min at room temperature and terminated by rapid filtration through prewetted (0.3% polyethyleneimine) 96-well printed Filtermate™ (Wallac) using a Tomtec® harvester (Hamden, Conn.). After washing with cold buffer, the filter was dried for 2 minutes in microwave, and Meltilex Scintillator sheet (Wallac) was melted on for 2 min. The radioactivity was measured with Betaplate model 1205 (Wallac).

For O=C(O)CCCCc1nc2cc(C(=O)Nc3ccccc3F)ccc2nc1-c1ccc(F)cc1 [5P, 3-(4-fluorophenyl)-7-[[(2-fluorophenyl)amino]carbonyl]-2-quinoxalinepentanoic acid], which Ki is on record?
The Ki was 201 to 700 nM.

Which Ki does the source give for CN(C)C(=O)c1ccc2nc(-c3ccc(F)cc3)c(CCCCC(=O)O)nc2c1 [5Q, 7-[(dimethylamino)carbonyl]-3-(4-fluorophenyl)-2-quinoxalinepentanoic acid] here?
Its Ki is 20.1 to 200 nM.

How did the Ki turn out when CC(C)NC(=O)c1ccc2nc(-c3ccc(F)cc3)c(CCCCC(=O)O)nc2c1 [5R, 3-(4-fluorophenyl)-7-[[(1-methylethyl)amino]carbonyl]-2-quinoxalinepentanoic acid] was run?
The Ki was 2.1 to 20 nM.

Which Ki does the source give for O=C(O)CCCCc1nc2cc(C(=O)N3CCC3)ccc2nc1-c1ccc(F)cc1 [5S, 7-(1-azetidinylcarbonyl)-3-(4-fluorophenyl)-2-quinoxalinepentanoic acid] here?
The Ki was 2.1 to 20 nM.

Which Ki does the source give for O=C(O)CCCCc1nc2cc(C(=O)C3CC3)ccc2nc1-c1ccccc1 [6G, 7-(cyclopropylcarbonyl)-3-phenyl-2-quinoxalinepentanoic acid] here?
Its Ki is 0.1 to 2 nM.

COC(=O)c1ccc2nc(-c3ccccc3)c(CCCCC(=O)O)nc2c1 [6H, 7-(methoxycarbonyl)-3-phenyl-2-quinoxalinepentanoic acid] was tested. Which Ki did it give?
The Ki was 2.1 to 20 nM.

Which Ki does the source give for CC(C)C(=O)c1ccc2nc(-c3ccc(F)cc3)c(CCCCC(=O)O)nc2c1 [7C, 3-(4-fluorophenyl)-7-(2-methyl-1-oxopropyl)-2-quinoxalinepentanoic acid] here?
Its Ki is 0.1 to 2 nM.

Which Ki does the source give for C[C@@H](NC(=O)c1ccc2nc(CCCCC(=O)O)c(-c3ccccc3)nc2c1)c1ccc(F)cc1 [8G] here?
The Ki was 20.1 to 200 nM.

With O=C(O)CCCOc1nc2cc(C(=O)NCc3ccc(Cl)cc3)ccc2nc1-c1ccccc1 [10C, 4-({7-[(4-chlorobenzyl)carbamoyl]-3-phenylquinoxalin-2-yl}oxy)butanoic acid] as the compound, how does the Ki read?
The Ki was 0.1 to 2 nM.

How did the Ki turn out when C[C@H](NC(=O)c1ccc2nc(-c3ccccc3)c(OCCCC(=O)O)nc2c1)c1ccccc1 [10D, 4-[(3-phenyl-7-{[(1S)-1-phenylethyl]carbamoyl}quinoxalin-2-yl)oxy] butanoic acid] was run?
The Ki was 2.1 to 20 nM.

With CN(Cc1ccccc1)C(=O)c1ccc2nc(-c3ccccc3)c(OCCCC(=O)O)nc2c1 [10E, 4-({7-[benzyl(methyl)carbamoyl]-3-phenylquinoxalin-2-yl}oxy)butanoic acid] as the compound, how does the Ki read?
Its Ki is 0.1 to 2 nM.

With O=C(O)CCCOc1nc2cc(C(=O)N3CCc4ccccc4C3)ccc2nc1-c1ccccc1 [10F, 4-{[7-(3,4-dihydroiso-quinolin-2(1H)-ylcarbonyl)-3-phenylquinoxalin-2-yl]oxy} butanoic acid] as the compound, how does the Ki read?
Its Ki is 2.1 to 20 nM.

How did the Ki turn out when O=C(O)CCCCc1nc2cc(NC(=O)c3ccc(OC(F)(F)F)cc3)ccc2nc1-c1ccccc1 [11D] was run?
The Ki was 201 to 700 nM.

Which Ki does the source give for O=C(O)CCCCc1nc2cc(NC(=O)c3ccc(Cl)cc3)ccc2nc1-c1ccccc1 [11E, 5-(7-{[(4-chlorophenyl)-carbonyl]amino}-3-phenyl-quinoxalin-2-yl)pentanoic acid] here?
Its Ki is 201 to 700 nM.

With O=C(O)CCCCc1nc2cc(NC(=O)Cc3ccc(C(F)(F)F)cc3)ccc2nc1-c1ccccc1 [11F, 5-[3-phenyl-7-({[4-(trifluoromethyl)phenyl]acetyl}amino)quinoxalin-2-yl]pentanoic acid] as the compound, how does the Ki read?
The Ki was 201 to 700 nM.

For C[C@H](NC(=O)c1cnc2nc(-c3ccccc3)c(CCCCC(=O)O)nc2c1)c1ccccc1 [14C, 5-(3-phenyl-7-{[(1S)-1-phenylethyl]carbamoyl}pyrido[2,3-b]pyrazin-2-yl)pentanoic acid], which Ki is on record?
Its Ki is 20.1 to 200 nM.

With O=C(O)CCCCc1nc2cc(C(=O)NCc3ccc(Cl)cc3)cnc2nc1-c1ccccc1 [14D, 5-{7-[(4-chlorobenzyl)-carbamoyl]-3-phenylpyrido[2,3-b]pyrazin-2-yl} pentanoic acid] as the compound, how does the Ki read?
The Ki was 2.1 to 20 nM.

For O=C(O)CCCCc1nc2cc(C(=O)NC3(c4ccccc4)CC3)cnc2nc1-c1ccccc1 [14E, 5-{3-phenyl-7-[(1-phenylcyclopropyl)carbamoyl]-pyrido[2,3-b]pyrazin-2-yl}pentanoic acid], which Ki is on record?
Its Ki is 20.1 to 200 nM.

For C[C@@H](NC(=O)c1cnc2nc(-c3ccccc3)c(CCCCC(=O)O)nc2c1)c1ccccc1 [14F, 5-(3-phenyl-7-{[(1R)-1-phenylethyl]carbamoyl}pyrido[2,3-b]pyrazin-2-yl)pentanoic acid], which Ki is on record?
The Ki was 20.1 to 200 nM.

O=C(O)CCCCc1nc2cc(C(=O)N3CCN(c4ccccc4)CC3)cnc2nc1-c1ccccc1 [14G, 5-{3-phenyl-7-[(4-phenylpiperazin-1-yl)carbonyl]pyrido [2,3-b]pyrazin-2-yl}pentanoic acid] was tested. Which Ki did it give?
The Ki was 0.1 to 2 nM.

Which Ki does the source give for CC(NC(=O)c1cnc2nc(-c3ccccc3)c(CCCCC(=O)O)nc2c1)c1ccncc1 (stereo not drawn) [14H, 5-{3-phenyl-7-[(1-pyridin-4-ylethyl)carbamoyl]pyrido[2,3-b]pyrazin-2-yl} pentanoic acid] here?
The Ki was 20.1 to 200 nM.

With C[C@@H](NC(=O)c1ccc2nc(-c3ccccc3)c(CCCCC(=O)O)nc2c1)c1ccccc1 [15A, 5-(3-phenyl-7-{[(1R)-1-phenylethyl]carbamoyl}quinoxalin-2-yl) pentanoic acid] as the compound, how does the Ki read?
The Ki was 2.1 to 20 nM.

For O=C(O)CCCCc1nc2cc(C(=O)Nc3ccccc3)ccc2nc1-c1ccccc1 [15AA, 5-[3-phenyl-7-(phenylcarbamoyl)quinoxalin-2-yl] pentanoic acid], which Ki is on record?
The Ki was 20.1 to 200 nM.

For O=C(O)CCCCc1nc2cc(C(=O)NCc3ccccc3F)ccc2nc1-c1ccccc1 [15AB, 5-{7-[(2-fluorobenzyl)carbamoyl]-3-phenylquinoxalin-2-yl}pentanoic acid], which Ki is on record?
The Ki was 0.1 to 2 nM.

O=C(O)CCCCc1nc2cc(C(=O)NCc3cccc(F)c3)ccc2nc1-c1ccccc1 [15AC, 5-{7-[(3-fluorobenzyl)carbamoyl]-3-phenylquinoxalin-2-yl}pentanoic acid] was tested. Which Ki did it give?
The Ki was 0.1 to 2 nM.

O=C(O)CCCCc1nc2cc(C(=O)NCc3ccc(F)cc3)ccc2nc1-c1ccccc1 [15AD, 5-{7-[(4-fluorobenzyl)carbamoyl]-3-phenylquinoxalin-2-yl}pentanoic acid] was tested. Which Ki did it give?
The Ki was 2.1 to 20 nM.

O=C(O)CCCCc1nc2cc(C(=O)NC3(c4ccccc4)CC3)ccc2nc1-c1ccccc1 [15AE, 5-{3-phenyl-7-[(1-phenylcyclopropyl)carbamoyl]quinoxalin-2-yl}pentanoic acid] was tested. Which Ki did it give?
Its Ki is 2.1 to 20 nM.

With O=C(O)CCCCc1nc2cc(C(=O)NCc3ccccn3)ccc2nc1-c1ccccc1 [15AF, 5-{3-phenyl-7-[(pyridin-2-ylmethyl)carbamoyl]quinoxalin-2-yl} pentanoic acid] as the compound, how does the Ki read?
Its Ki is 2.1 to 20 nM.

Which Ki does the source give for O=C(O)CCCCc1nc2cc(C(=O)NCc3cccnc3)ccc2nc1-c1ccccc1 [15AG, 5-{3-phenyl-7-[(pyridin-3-ylmethyl)carbamoyl]quinoxalin-2-yl} pentanoic acid] here?
Its Ki is 2.1 to 20 nM.

For O=C(O)CCCCc1nc2cc(C(=O)NCc3ccncc3)ccc2nc1-c1ccccc1 [15AH, 5-{3-phenyl-7-[(pyridin-4-ylmethyl)carbamoyl]quinoxalin-2-yl} pentanoic acid], which Ki is on record?
Its Ki is 20.1 to 200 nM.

For O=C(O)CCCCc1nc2cc(C(=O)N3CCCCC3c3ccccc3)ccc2nc1-c1ccccc1 (stereo not drawn) [15AJ, 5-{3-phenyl-7-[(2-phenylpiperidin-1-yl)carbonyl]quinoxalin-2-yl}pentanoic acid], which Ki is on record?
Its Ki is 2.1 to 20 nM.

Which Ki does the source give for O=C(O)CCCCc1nc2cc(C(=O)N3CCC(c4ccccc4)C3)ccc2nc1-c1ccccc1 (stereo not drawn) [15AK, 5-{3-phenyl-7-[(3-phenylpyrrolidin-1-yl)carbonyl]quinoxalin-2-yl}pentanoic acid] here?
Its Ki is 2.1 to 20 nM.

O=C(O)CCCCc1nc2cc(C(=O)N3CCCC3c3ccccc3)ccc2nc1-c1ccccc1 (stereo not drawn) [15AL, 5-{3-phenyl-7-[(2-phenylpyrrolidin-1-yl)carbonyl]quinoxalin-2-yl}pentanoic acid] was tested. Which Ki did it give?
Its Ki is 0.1 to 2 nM.

With O=C(O)CCCCc1nc2cc(C(=O)NC3(c4ccccc4)CCC3)ccc2nc1-c1ccccc1 [15AM, 5-{3-phenyl-7-[(1-phenylcyclobutyl)carbamoyl]quinoxalin-2-yl}pentanoic acid] as the compound, how does the Ki read?
Its Ki is 2.1 to 20 nM.

For O=C(O)CCCCc1nc2cc(C(=O)N3CCN(c4ccccc4)CC3)ccc2nc1-c1ccccc1 [15AN, 5-{3-phenyl-7-[(4-phenylpiperazin-1-yl)carbonyl]quinoxalin-2-yl}pentanoic acid], which Ki is on record?
Its Ki is 2.1 to 20 nM.

With O=C(O)CCCCc1nc2cc(C(=O)N3CCc4ccccc4C3)ccc2nc1-c1ccccc1 [15AP, 5-[7-(3,4-dihydroisoquinolin-2(1H)-ylcarbonyl)-3-phenylquinoxalin-2-yl]pentanoic acid] as the compound, how does the Ki read?
The Ki was 2.1 to 20 nM.

O=C(O)CCCCc1nc2cc(C(=O)NC3c4ccccc4CC3O)ccc2nc1-c1ccccc1 (stereo not drawn) [15AQ, 5-{7-[(2-hydroxy-2,3-dihydro-1H-inden-1-yl)carbamoyl]-3-phenylquinoxalin-2-yl}pentanoic acid] was tested. Which Ki did it give?
The Ki was 2.1 to 20 nM.

With O=C(O)CCCCc1nc2cc(C(=O)NC3CCCc4ccccc43)ccc2nc1-c1ccccc1 (stereo not drawn) [15AR, 5-[3-phenyl-7-(1,2,3,4-tetrahydronaphthalen-1-ylcarbamoyl)quinoxalin-2-yl]pentanoic acid] as the compound, how does the Ki read?
Its Ki is 0.1 to 2 nM.

Same assay, conditions: [3H]PGD2 binding, values in text

Which Ki does the source give for O=C(O)CCCCc1nc2cc(C(=O)Nc3ccccc3F)ccc2nc1-c1ccc(F)cc1 [5P, 3-(4-fluorophenyl)-7-[[(2-fluorophenyl)amino]carbonyl]-2-quinoxalinepentanoic acid] here?
Its Ki is 266 nM.

O=C(O)CCCCc1nc2cc(C(=O)C3CC3)ccc2nc1-c1ccccc1 [6G, 7-(cyclopropylcarbonyl)-3-phenyl-2-quinoxalinepentanoic acid] was tested. Which Ki did it give?
Its Ki is 0.5 nM.

O=C(O)CCCCc1nc2cc(NC(=O)Cc3ccc(C(F)(F)F)cc3)ccc2nc1-c1ccccc1 [11F, 5-[3-phenyl-7-({[4-(trifluoromethyl)phenyl]acetyl}amino)quinoxalin-2-yl]pentanoic acid] was tested. Which Ki did it give?
The Ki was 223 nM.

Which Ki does the source give for O=C(O)CCCCc1nc2cc(C(=O)NC3CCCc4ccccc43)ccc2nc1-c1ccccc1 (stereo not drawn) [15AR, 5-[3-phenyl-7-(1,2,3,4-tetrahydronaphthalen-1-ylcarbamoyl)quinoxalin-2-yl]pentanoic acid] here?
Its Ki is 1.6 nM.
